Here are results for 28 molecules from patent US5589483A, “Isoquinoline poly (ADP-ribose) polymerase inhibitors to treat skin diseases associated with cellular senescence” (priority 1994, dated 1996).

Experiment [1] has as its target Poly (ADP-Ribose) Polymerase (PADPRP). The settings on record: cited from earlier work; for IC50: PADPRP Inhibitors, Table 1.
Experiment [2] deals with human fibroblast cells (W138 cells). Description: Extension of lifespan and proliferative capacity of human fibroblast cells in culture (cumulative population doublings). The experiment is classed as cell-based. From the text:
At the time of subdivision, the media was aspirated, and the cells were rinsed with phosphate buffered saline (PBS) and then trypsinized. […] This process was repeated every ~7 days until the cells appeared to stop dividing.

The test system of a further experiment is human fibroblasts. The note with it: Rattan and Clark, 1994; cited from earlier work.

Each structure is given as a SMILES string. Some results are limits rather than exact numbers.

As usually defined, the IC50 is the concentration at which inhibition is half-maximal. In the case of `COc1ccccc1C(N)=O` [2-Methoxybenzamide], the IC50 in experiment [1] is 20 µM.
Regarding `O=c1[nH]ncc2ccccc12` [1(2H)-Phthalazinone], the IC50 in experiment [1] is 12 µM.
With `O=c1[nH]c(=O)n([C@@H]2O[C@H](CO)[C@@H](O)[C@H]2O)cc1I` [5-Iodouridine], in experiment [1], the IC50 was 43 µM.
Consider `NC(=O)c1ccccc1O` [2-Hydroxybenzamide], for which the IC50 in experiment [1] is 82 µM.
As for `O=c1[nH][nH]c(=O)c2c([N+](=O)[O-])cccc12` [3-Nitrophthalhydrazide], the IC50 in experiment [1] was 72 µM.
On to `NC(=O)c1cccc(F)c1` [3-Fluorobenzamide], for which the IC50 in experiment [1] was 20 µM.
Consider `O=c1[nH][nH]c(=O)c2ccccc12` [2,3-Dihydro-1,4-phthalazinedione], for which the IC50 in experiment [1] was 30 µM.
Take `CCCCC/C=C\C/C=C\C/C=C\C/C=C\CCCC(=O)O` [Arachidonic acid]: in experiment [1], the IC50 is 44 µM.
Take `Oc1cccc2c(O)nccc12` [1,5-Dihydroxyisoquinoline]: in experiment [2] (100 μM (DMSO concentration 0.1%), W138 cells, FIG. 2), the “proliferative lifespan (maximum achievable cumulative population doublings)” value was “extension of their proliferative lifespan”. In addition, the “proliferative capacity of treated cells” value in experiment [2] (same procedure, FIG. 2, concentration not given) is given as “increased proliferative capacity”.
`NC(=O)c1cccnc1` [Nicotinamide]: the IC50 in experiment [1] was 210 µM.
Turning to `O=c1[nH]c2ccc([N+](=O)[O-])cc2c2ccccc12` [2-Nitro-6(5H)-phenanthridinone], the IC50 in experiment [1] was 0.35 µM.
On to `O=c1[nH]cc(I)c(=O)[nH]1` [5-Iodouracil], for which the IC50 in experiment [1] is 71 µM.
As for `NC(=O)c1ccccc1` [Benzamide], the concentration for half-maximal inhibition (IC50) in experiment [1] was 22 µM.
For the molecule `NC(=O)c1cccc(C(N)=O)c1` [m-Phthalamide], the IC50 in experiment [1] was 50 µM.
Take `Cc1cc(=O)c2ccccc2o1` [2-Methyl-1,4-benzopyrone]: the IC50 in experiment [1] is 45 µM.
For the molecule `c1coc(CNc2ncnc3[nH]cnc23)c1` [kinetin], in the experiment with human fibroblasts, the “cell culture lifespan in terms of maximum proliferative capacity in vitro” value was “not accompanied by an increase in cell culture lifespan” and the “onset of aging characteristics” value is on record as “delay the onset of aging characteristics”. In addition, the “PADPRP inhibition (in words)” value in experiment [1] (Althaus and Richter, 1987) is listed as “weak inhibitor”.
In the case of `NC(=O)c1cccc(N)c1` [3-Aminobenzamide], the “lifespan of treated cells versus control cells” value in experiment [2] (10 μM 3-AB, FIG. 1) was “no effect”; in experiment [2] (100 μM 3-AB, FIG. 1) it was “longer lifespan than control cells”. Besides, in experiment [2] (1 mM 3-AB, FIG. 1), the “lifespan and proliferative capacity of treated cells” value was “dramatic increase in lifespan and proliferative capacity”. Moreover, the “maximum achievable cumulative population doublings” value in experiment [2] (1 mM 3-AB, W138 cells, FIG. 1) was “significant increase”. Further, in experiment [2] (1 mM 3-AB, control cells stopped dividing after about 40 days), the “days in culture at which cells were still dividing” value is on record as more than 60 days.
In the case of `CCCCCCCC/C=C\CCCCCCCC(=O)O` [Oleic acid], in experiment [1], the IC50 was 82 µM.
With `CC(=O)Nc1ccc(O)c(C(N)=O)c1` [5-Acetamidosalicylamide], the IC50 in experiment [1] is 45 µM.
Take `NC(=O)c1cccc(O)c1` [3-Hydroxybenzamide]: the IC50 in experiment [1] is 9.1 µM.
As for `Oc1ccnc2ccccc12` [4-Hydroxyquinoline], the IC50 in experiment [1] was 80 µM.
Turning to `CC(=O)Nc1cccc(C(N)=O)c1` [3-Acetamidobenzamide], in experiment [1], the IC50 is 12 µM.
As to `CCCCC/C=C\C/C=C\CCCCCCCC(=O)O` [Linoleic acid], in experiment [1], the IC50 is 48 µM.
On to `O=c1[nH]c(S)nc2ccccc12` [2-Mercapto-4(3H)-quinazolinone], for which the IC50 in experiment [1] is 44 µM.
Consider `O=c1[nH]c2ccccc2c2ccccc12` [2H-Benz[c]isoquinolin-1-one], for which, in experiment [1], the IC50 was 0.3 µM.
For the molecule `Cc1cccc(C(N)=O)c1` [3-Methylbenzamide], in experiment [1], the IC50 is 19 µM.
With `Cc1cc(O)c2ccccc2n1` [4-Hydroxy-2-methylquinoline], the IC50 in experiment [1] was 74 µM.
Consider `Nc1cccc2c(=O)[nH][nH]c(=O)c12` [3-Aminophthalhydrazide], for which the IC50 in experiment [1] was 23 µM.
